Literature values in patent US20260335248A1, “ANTIFUNGAL AGENT ENCAPSULATED IN A LIPID NANOCRYSTAL FOR TREATING MUCORMYCOSIS” (MATINAS BIOPHARMA NANOTECHNOLOGIES, INC., priority 2022, published 2026).

System: mucormycosis
Details: Luo et al., 2013

CC[C@@H]([C@H](C)O)n1ncn(-c2ccc(N3CCN(c4ccc(OC[C@@H]5CO[C@@](Cn6cncn6)(c6ccc(F)cc6F)C5)cc4)CC3)cc2)c1=O [Posaconazole, posaconazole]
fungal burdens in lungs and brain compared with placebo: effective in reducing the fungal burdens in lungs and brain
